US4447437A, “Pharmaceutical composition and method for treatment of peptic ulcer” (priority 1981, dated 1984)
Where a name gives a salt, the structure may show the parent alone.

What was measured:
Shay ulcer of rats = assay: Effect on Shay ulcer of rats (pylorus ligation); format: in vivo, Wistar male rats; settings: for Inhibition rate: ulcer-index 19 h after pylorus ligation
Experimental: Effect on Shay ulcer of rats
A group of 8 Wistar male rats weighing 130-180 g were used in a group. […] Nineteen hours after ligation, the severity of ulcerous lesions in the proventricular part of the stomach was observed and expressed in a numerical scale according to the method of Adami et al. (Arch. Int. Pharmacodyn. Ther., 143, 113 (1964)) as the ulcer-index. Inhibition of ulceration was calculated with ulcer-indexes of the treated group and those of a control group. The anti-ulcer effects of well-known therapeutic agents on the market, sulpiride and cetraxate, were examined for comparison.

[1] = system: histamine-induced ulcer in guinea-pigs; assay: Effect on histamine-induced ulcer in guinea-pigs; format: in vivo, male guinea-pigs; settings: for Inhibition rate: 2 h
Experimental: Effect on histamine-induced ulcer in guinea-pigs
Groups of 10 male guinea-pigs weighing 280-300 g were used. […] Two hours later, the stomach was removed and the size of the ulcerous lesions were measured. Based on the size of the lesions, the inhibitory effect of the drug was estimated. The effects of sulpiride, cetraxate and aluminum sucrose sulphate were also determined for comparison.

[2] = system: acetic acid-induced ulcer in rats; assay: Effect on acetic acid-induced ulcer in rats; format: in vivo, male Wistar rats; settings: for Inhibition rate: lesion size 12 days after acetic acid
Experimental: Effect on acetic acid-induced ulcer in rats
Groups of 14-16 male Wistar rats weighing 210-280 g were used. According to the method of Okabe et al. (Folia Pharmacologica Japonica, 74, 773 (1978)), 0.015 ml of 20% acetic acid solution was injected under the serous membrane at the border of the proventricular part and glandular part of the stomach. […] The stomach was removed 12 days after the injection of acetic acid and the size of the ulcerous lesions was measured. Based on the size of the lesions, the inhibitory effect of the drug was estimated. The effects of sulpiride were also determined for comparison.

ICR mice = assay: in vivo; settings: Table 4: ICR mice and Wistar rats, acute oral toxicity
Experimental: (§1) LD50 was calculated by the Litchfield-Wilcoxon method using mortality at 7 days after drug administration.

in vivo = settings: mouse, in vivo, po, LD50, ICR mice, mortality at 7 days, Litchfield-Wilcoxon method
Experimental: as §1

[3] = Acute oral toxicity in rats; settings: rat, in vivo, Wistar rats, male, mortality at 7 days, Litchfield-Wilcoxon method
Solubility = format: physicochemical
[4] = known compound; cited from earlier work
[5] = Stability at room temperature; format: physicochemical; settings: maleic acid salt
[6] = histamine-induced ulcer, 300 mg/kg, 5 mg/kg i.v. histamine

With `NC[C@H]1CC[C@H](C(=O)Oc2ccc(CCC(=O)O)cc2)CC1` [Cetraxate, reference compound] as the compound, how does the Inhibition rate (Shay ulcer of rats; Shay ulcer, 300 mg/kg) read?
Its Inhibition rate is 44.2%.

And the Inhibition rate [1, 6]?
Its Inhibition rate is -7.0%.

What does the source list for `CCN1CCCC1CNC(=O)c1cc(S(N)(=O)=O)ccc1OC` (stereo not drawn) [Sulpiride, reference compound]?
Inhibition rate (Shay ulcer of rats; Shay ulcer, 100 mg/kg): 16.3%; Inhibition rate ([2]; acetic acid-induced ulcer, 100 mg/kg): 43.9%; Inhibition rate [1, 6]: 5.6%

For `CN1CCC2=C(C1)c1ccccc1Cc1ccccc12` [MO-8282, 2-N-methyl-1,2,3,4-tetrahydro-9H-dibenzo[a,e]-pyridino[3,4-c]-cycloheptatriene], which “inhibitory action on Shay ulcer (in words)” value (Shay ulcer of rats) is on record?
Its value is “significant inhibitory action on Shay ulcer in rats”.

What about the Inhibition rate (Shay ulcer of rats; Shay ulcer, 3 mg/kg s.c.) of the same compound?
The Inhibition rate was 34.9%.

What about the Inhibition rate (Shay ulcer of rats; Shay ulcer, 10 mg/kg s.c.) of the same compound?
Its Inhibition rate is 44.2%.

What about the “efficacy compared with reference drugs (in words)” value (Shay ulcer of rats; Shay ulcer, versus sulpiride and cetraxate) of the same compound?
The value was “superior to the two reference drugs, sulpiride and cetraxate”.

What about the “toxic dose compared with therapeutic dose (in words)” value (ICR mice) of the same compound?
Its value is “considerably higher than its therapeutic dose”.

And the LD50 at 168 h (in vivo; female)?
Its LD50 at 168 h is 454 mg/kg.

And the LD50 at 168 h (in vivo; male)?
The LD50 at 168 h was 423 mg/kg.

And the “inhibitory action on acetic acid-induced ulcer (in words)” value [2]?
Its value is “significant inhibitory action on acetic acid-induced ulcer in rats”.

And the Inhibition rate ([2]; acetic acid-induced ulcer, 3 mg/kg orally three times a day for 10 days)?
Its Inhibition rate is 23.2%.

And the Inhibition rate ([2]; acetic acid-induced ulcer, 10 mg/kg orally three times a day for 10 days)?
The Inhibition rate was 51.2%.

What about the “promotion of healing (in words)” value ([2]; acetic acid-induced ulcer, microscopic observation) of the same compound?
Its value is “promotion of healing by the compound was also evident under microscopic observation”.

And the “efficacy compared with reference drug (in words)” value ([2]; acetic acid-induced ulcer, versus sulpiride)?
Its value is “superior to that of the reference drug with a lower dose”.

And the LD50 at 168 h [3]?
Its LD50 at 168 h is 630 mg/kg.

What about the “solubility (insoluble in)” value (Solubility; ethanol, free base) of the same compound?
The value was “insoluble in ethanol”.

And the “solubility (soluble in)” value (Solubility; solvents in which soluble, free base)?
The value was “soluble in ether, ethyl acetate, n-hexane and chloroform”.

And the “inhibitory action on histamine-induced ulcers (in words)” value [1]?
Its value is “significant inhibitory action on histamine-induced ulcers in guinea-pigs”.

What about the Inhibition rate ([1]; histamine-induced ulcer, 3 mg/kg orally 10 min before 5 mg/kg i.v. histamine) of the same compound?
The Inhibition rate was 54.7%.

What about the Inhibition rate ([1]; histamine-induced ulcer, 10 mg/kg orally 10 min before 5 mg/kg i.v. histamine) of the same compound?
Its Inhibition rate is 98.6%.

And the “efficacy compared with reference drugs (in words)” value ([1]; histamine-induced ulcer, versus the reference drugs)?
The value was “superior to that of the reference drugs”.

What about the “anti-depressive activity (in words)” value [4] of the same compound?
The value was “has anti-depressive activity”.

For `CN1CCC2=C(C1)c1ccccc1Cc1ccccc12` [Maleic acid salt of MO-8282], which stability [5] is on record?
The stability was “stable at room temperature”.

And the “solubility (soluble in)” value (Solubility; water or ethanol, maleic acid salt)?
Its value is “soluble in water or ethanol”.
